The target of one data set is T1, Mer kinase (Homo sapiens, UniProt Q12866).
T1 sequence (Q12866 21-999): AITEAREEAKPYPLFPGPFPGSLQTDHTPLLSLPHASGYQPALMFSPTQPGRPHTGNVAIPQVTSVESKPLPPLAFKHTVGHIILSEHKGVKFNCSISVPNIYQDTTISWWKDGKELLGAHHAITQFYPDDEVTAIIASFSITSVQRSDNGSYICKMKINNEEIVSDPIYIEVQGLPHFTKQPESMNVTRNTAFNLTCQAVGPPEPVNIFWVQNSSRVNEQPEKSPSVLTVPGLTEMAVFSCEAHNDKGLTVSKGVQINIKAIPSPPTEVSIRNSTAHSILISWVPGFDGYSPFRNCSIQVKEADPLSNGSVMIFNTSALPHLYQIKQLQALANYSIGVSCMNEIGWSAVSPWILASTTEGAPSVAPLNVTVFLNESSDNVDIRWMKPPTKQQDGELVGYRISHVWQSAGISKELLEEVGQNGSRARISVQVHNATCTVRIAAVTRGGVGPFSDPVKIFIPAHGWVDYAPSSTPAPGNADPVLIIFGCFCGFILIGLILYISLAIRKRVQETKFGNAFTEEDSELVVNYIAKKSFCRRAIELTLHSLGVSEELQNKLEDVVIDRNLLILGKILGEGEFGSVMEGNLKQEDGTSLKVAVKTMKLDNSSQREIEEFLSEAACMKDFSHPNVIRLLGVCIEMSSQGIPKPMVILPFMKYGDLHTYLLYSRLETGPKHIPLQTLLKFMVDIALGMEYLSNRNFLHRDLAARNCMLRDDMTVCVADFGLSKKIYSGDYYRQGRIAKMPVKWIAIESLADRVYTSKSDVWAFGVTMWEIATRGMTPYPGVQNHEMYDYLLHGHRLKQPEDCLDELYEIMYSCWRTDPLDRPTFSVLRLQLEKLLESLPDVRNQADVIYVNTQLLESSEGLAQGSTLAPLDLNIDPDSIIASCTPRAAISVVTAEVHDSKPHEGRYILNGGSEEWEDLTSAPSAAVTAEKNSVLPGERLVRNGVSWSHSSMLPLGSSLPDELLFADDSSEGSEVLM
As to the kind of experiment: Mer kinase inhibitory activity assay (in vitro). The note with it: ATP 30 uM, enzyme 0.25 nM; means from three independent experiments. The class given is biochemical. Here is the method: The in vitro inhibition assays of all final compounds against Mer and c-Met kinase were performed by Shanghai Bioduro Biological Technology Co., Ltd. (Shanghai, China). We prepared 1× buffer: HEPES 50 mM, MgCl2 10 mM, EGTA 1 mM, NP-40 0.0001%, DTT 2 mM; compound dilution with DMSO. For test compounds, a 100 × final concentration solution was prepared. About 100 nL compounds were transferred to a 384-well plate by using the automated liquid handler. The final DMSO% in the assay is 1%. Enzyme stock solutions were diluted with 1× assay buffer to a concentration of 0.5 nM to make a 2× working solution. […] Substrate solutions were diluted with 1× assay buffer. About 5 μL mix or buffer was added manually to the assay plate (ATP final 30 uM and TK-Sub-Biotin final 2 uM) using a multichannel pipette, spun down at 1000 rpm, and centrifuged for 30 s. After incubating at 30 °C for 60 min, 10 μL of detection solution was added to each well of the assay, mixed briefly with a centrifuge, and equilibrated for another 60 min. The luminescence was recorded using Envision.

Data set [1] is described as follows: Liver microsome stability assay. The class given is in vitro ADME. The note with it: pH 7.4, human liver microsomes 0.2 mg/mL, test compound 1 μM, NADPH. Here is the method:
Stock solution (10 mM) of each of test compound was prepared in DMSO. The stock solution for each compound was then diluted into 200 μM with acetonitrile. Incubation mixtures were prepared in a total volume of 200 μL with final component concentrations as follows: 0.1 M PBS (pH 7.4), NADPH (2 mM), liver microsomes (0.2 mg/mL), and test compound (1 μM) or positive control. NAPDH was added after a 5 min preincubation of all other components at 37 °C, then pipette-mixed to achieve a homogenous suspension and immediately transferred 20 μL of the incubate as a 0 min sample to wells in a “Quenching” plate, followed by pipette-mixing. At 5, 15, 30, and 60 min, we pipette-mixed the incubate and serially transferred samples of 20 μL of the incubate per time point to wells in a separate “Quenching” plate, followed by pipette-mixing. In “Quenching” plates, 200 μL of acetonitrile was added with IS. The 96 wells were centrifuged at 4000 rpm for 10 min. Then 50 μL of supernatant was mixed with 50 μL of ddH2O and injected into the LC-MS/MS system for analysis.
(In general: Liver microsomes are vesicles of endoplasmic reticulum, rich in cytochrome P450 enzymes.)

In a further data set the test system is HepG2 cells. As to the kind of experiment: Antiproliferation assay (CCK-8), HepG2. The data set is classed as cell-based. On the procedure:
(§1) The antiproliferative activities of the compounds against HepG2, MDA-MB-231, and HCT116 cell lines were tested by the standard CCK-8 method. Cell viability was measured by Cell Counting Kit-8 (Meilunbio, Dalian, China) according to the manufacturer’s instructions. Briefly, cancer cells were seeded into 96-well plates at a density of 2.5 × 10^3 cells per well. […] Subsequently, CCK-8 solution was added into each well and incubated for an additional 2 h. The absorbance at 450 nm was determined in each well using the BioTek Synergy HTX microplate reader. The assay was performed in triplicate, and each experiment was repeated three times.

The subject of a further data set is MDA-MB-231 cells. Briefly: Antiproliferation assay (CCK-8), MDA-MB-231. The data set is classed as cell-based. On the procedure: as §1
Data set [2] concerns HCT116 cells. Briefly: Antiproliferation assay (CCK-8), HCT116. The class given is cell-based. Here is the method: Cell viability was measured by Cell Counting Kit-8 (Meilunbio, Dalian, China) according to the manufacturer’s instructions. Briefly, cancer cells were seeded into 96-well plates at a density of 2.5 × 10^3 cells per well. […] Subsequently, CCK-8 solution was added into each well and incubated for an additional 2 h. The absorbance at 450 nm was determined in each well using the BioTek Synergy HTX microplate reader. The assay was performed in triplicate, and each experiment was repeated three times.

For the next data set, the target named is T2, hERG potassium currents (Homo sapiens, UniProt Q12809).
T2 construct: expressed in transfected cells
T2 sequence (Q12809 whole entry): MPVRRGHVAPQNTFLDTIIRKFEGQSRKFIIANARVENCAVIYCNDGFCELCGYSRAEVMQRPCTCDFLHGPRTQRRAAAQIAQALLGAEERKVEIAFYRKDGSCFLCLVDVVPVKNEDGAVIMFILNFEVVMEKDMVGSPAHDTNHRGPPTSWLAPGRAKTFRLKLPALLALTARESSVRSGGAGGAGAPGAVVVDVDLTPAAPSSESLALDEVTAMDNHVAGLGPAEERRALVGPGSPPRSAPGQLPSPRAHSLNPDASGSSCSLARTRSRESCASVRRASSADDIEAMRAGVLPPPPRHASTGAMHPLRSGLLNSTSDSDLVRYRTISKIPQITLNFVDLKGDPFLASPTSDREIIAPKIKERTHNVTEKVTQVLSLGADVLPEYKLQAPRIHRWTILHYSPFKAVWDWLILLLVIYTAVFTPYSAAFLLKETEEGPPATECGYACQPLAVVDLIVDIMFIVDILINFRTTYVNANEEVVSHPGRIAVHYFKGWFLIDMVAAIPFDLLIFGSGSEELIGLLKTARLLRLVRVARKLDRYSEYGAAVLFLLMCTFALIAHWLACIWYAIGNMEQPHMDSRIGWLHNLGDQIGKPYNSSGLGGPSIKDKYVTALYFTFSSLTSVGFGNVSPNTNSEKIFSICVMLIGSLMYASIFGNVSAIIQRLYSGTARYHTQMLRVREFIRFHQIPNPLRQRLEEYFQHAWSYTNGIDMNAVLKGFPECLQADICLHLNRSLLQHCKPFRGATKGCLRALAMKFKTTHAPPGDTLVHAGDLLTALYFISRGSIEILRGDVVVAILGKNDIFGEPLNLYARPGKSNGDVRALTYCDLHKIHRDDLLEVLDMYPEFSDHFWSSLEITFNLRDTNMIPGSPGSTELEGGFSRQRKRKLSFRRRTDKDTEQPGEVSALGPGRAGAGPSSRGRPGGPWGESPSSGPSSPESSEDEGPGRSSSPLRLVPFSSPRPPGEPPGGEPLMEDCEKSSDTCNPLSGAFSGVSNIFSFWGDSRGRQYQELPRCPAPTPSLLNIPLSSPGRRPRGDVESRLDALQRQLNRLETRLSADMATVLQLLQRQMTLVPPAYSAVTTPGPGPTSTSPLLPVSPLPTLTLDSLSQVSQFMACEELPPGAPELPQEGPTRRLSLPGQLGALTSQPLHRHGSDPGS
As to the kind of experiment: hERG potassium currents assay (automated whole-cell patch clamp, CHO cells). The class given is cell-based. The conditions noted are these: CHO cells stably expressing hERG, QPatch. Here is the method:
CHO cells stably expressing the transcript of hERG were investigated by the automated whole-cell patch clamp technique, using the QPatch system (Sophion, Ballerup, Denmark). The detailed procedures of the hERG potassium currents assay were described in our previous work. Each cell was received from six escalating concentrations. Each concentration was tested on at least three cells. The reference compound cisapride was applied at the end of the test compound addition.
A general note: The hERG channel carries a current that helps repolarise heart muscle cells.

Data set [3] relates to HCT116 cells. As to the kind of experiment: TUNEL apoptosis assay. The data set is classed as cell-based. The conditions noted are these: HCT116, 48 h treatment. Here is the method:
The number of TUNEL-positive cells was counted from 5 non-overlap random fields per group; DAPI (blue). Data are representative of three independent experiments.
The One Step TUNEL Apoptosis Assay Kit (Meilunbio, Dalian, China) was used for studying apoptosis in a dose-dependent manner. HCT116 cells (1.5 × 10^4 cells/well) were cultured in TC-treated glass coverslip-containing plates. […] Next, adhered cells were fixed with 4% paraformaldehyde and permeabilized with 0.3% Triton-X-100. TUNEL staining was performed according to the manufacturer’s instructions. The nuclei of cells were counterstained with the DAPI reagent. Images were taken using an Olympus fluorescence microscope. The ED50 for 18c was calculated with the program GraphPad PRISM 9.5. The assay was performed in triplicate, and each experiment was repeated three times.

Data set [4] relates to HCT116 cells. Briefly: Transwell migration assay. The conditions noted are these: 24 h. The data set is classed as cell-based. On the procedure: Transwell migration assays were performed using Transwell® chamber inserts (Costar, Cambridge, MA, USA) with a porous polycarbonate membrane (8 μM pore size).
Transwell migration assays were performed using Transwell® chamber inserts (Costar, Cambridge, MA, USA) with a porous polycarbonate membrane ([…]). Briefly, 1.5 × 10^5 HCT116 cells were added in the top chamber with FBS-free culture media containing 0.2% BSA. A culture medium containing 15% FBS was added to the bottom chamber. […] After incubation for 24 h at 37 °C, the cells were fixed in methanol and stained with 0.1% crystal violet. The cells that had not migrated from the top surface of the filters were removed with cotton. Five randomly selected fields were captured by brightfield microscopy for each well. Migrated cells were quantitated by ImageJ (1.53c). Experiments were repeated at least three times in replicates.

The mark [5] stands for this setting: ratio of IC50 values to cabozantinib.

Entries after “also recorded” stand apart in the source; their conditions may differ. A value given as a limit tells only on which side of the number the result lay.

Regarding `CN1CCN(CC(=O)Nc2ccc(Nc3nccc(Oc4ccc(NC(=O)C5(C(=O)Nc6ccc(F)cc6)CC5)cc4)n3)cc2)CC1` [Compound 18c], the IC50 on Mer kinase was 0.0185 ± 0.0023 µM; in the data set with HepG2 cells (Homo sapiens, HepG2, 72 h, read-out: IC50 antiproliferative HepG2), 6.63 µM; with MDA-MB-231 cells (Homo sapiens, MDA-MB-231, 72 h, read-out: IC50 antiproliferative MDA-MB0231), 8.9 µM; with HCT116 cells [2] (Homo sapiens, HCT-116, 72 h, read-out: IC50 antiproliferative HCT116) it was 4.95 µM; on hERG potassium currents, more than 40 µM. Besides, the microsomal CLint at 1 μM in data set [1] (read-out: CL Human) came to 60 µL/min/mg. The half-life at 1 μM in data set [1] (read-out: T1/2 Human) is 53.1 min. Further, in the data set on HepG2 cells (setting [5]), the “Antiproliferative activity against HepG2, times lesser than cabozantinib” value stood at 3.8 times. Also, the “Antiproliferative activity against MDA-MB-231, times higher than cabozantinib” value in the data set on MDA-MB-231 cells (setting [5]) is 3.3 times. Also, the “Antiproliferative activity against HCT116, times higher than cabozantinib” value in the data set with HCT116 cells [2] (setting [5]) amounted to 1.6 times. Also, in the data set with HCT116 cells [3], the “ED50 apoptosis (TUNEL-positive cells)” value was 10.07 µM. In addition, the “Inhibition of HCT116 cell migration vs control” value in the data set on HCT116 cells [4] was “inhibited cell migration; also recorded: significantly inhibited”.

The term IC50 denotes the midpoint of a concentration-inhibition curve.

For the origin of these results see publication PMC10819570, “Design, Synthesis, and Biological Evaluation of 2-Substituted Aniline Pyrimidine Derivatives as Potent Dual Mer/c-Met Inhibitors” (Molecules, 2024).
